Results from patent publication US20240210412A1, “SULFONYL-TRIAZOLE COMPOUNDS USEFUL AS LIGANDS AND INHIBITORS OF PROSTAGLANDIN REDUCTASE 2” (University of Virginia Patent Foundation, priority 2021, published 2024).

Tests used:
Assay in all cases: SILAC LC-MS ABPP
Format in all cases: cell-based
Conditions in all cases: 25 μM 2 h, live DM93 cells
Q9BPW8 = biological target: T1, Q9BPW8 (Homo sapiens, UniProt Q9BPW8)
T1 construct: endogenous in cells; host or cells: DM93 cells (SILAC), treated live; soluble proteome analysed
Method in brief: (§1)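 DM93 SILAC cells, ligand 25 μM vs DMSO, 2 h; HHS-475 100 μM, 2 h; CuAAC desthiobiotin tag; 1:1 pool; trypsin; avidin enrichment; LC-MS/MS site quantification.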

P61978 = biological target: T2, P61978 (Homo sapiens, UniProt P61978)
T2 construct: performing SuTEx compound screening directly in cells; endogenous in cells; host or cells: DM93 cells (SILAC)
Method in brief: as §1

P51665 = biological target: T3, P51665 (Homo sapiens, UniProt P51665)
T3 construct: endogenous in cells; host or cells: DM93 cells (SILAC)
Method in brief: as §1

Q04323 = biological target: T4, Q04323 (Homo sapiens, UniProt Q04323)
T4 construct: performing SuTEx compound screening directly in cells; endogenous in cells; host or cells: DM93 cells (SILAC)
Method in brief: as §1

O43660 = biological target: T5, O43660 (Homo sapiens, UniProt O43660)
T5 construct: endogenous in cells; host or cells: DM93
Method in brief: as §1

P61326 = biological target: T6, P61326 (Homo sapiens, UniProt P61326)
T6 construct: performing SuTEx compound screening directly in cells; endogenous in cells; host or cells: DM93 cells (SILAC)
Method in brief: as §1

Q15020 = biological target: T7, Q15020 (Homo sapiens, UniProt Q15020)
T7 construct: performing SuTEx compound screening directly in cells; endogenous in cells; host or cells: DM93 cells (SILAC), soluble fraction
Method in brief: as §1

Q9Y2S7 = biological target: T8, Q9Y2S7 (Homo sapiens, UniProt Q9Y2S7)
T8 construct: endogenous in cells; host or cells: DM93 cells (SILAC)
Method in brief: as §1

P23588 = biological target: T9, P23588 (Homo sapiens, UniProt P23588)
T9 construct: Probe-modified proteins from the soluble fraction were conjugated to a desthiobiotin-azide tag; endogenous in cells; host or cells: DM93 (SILAC)
Method in brief: as §1

Q9BWD1 = biological target: T10, Q9BWD1 (Homo sapiens, UniProt Q9BWD1)
T10 construct: endogenous in cells; host or cells: DM93 cells (SILAC), treated live; soluble proteome analysed
Method in brief: as §1

Q13033 = biological target: T11, Q13033 (Homo sapiens, UniProt Q13033)
T11 construct: performing SuTEx compound screening directly in cells; endogenous in cells; host or cells: DM93 cells (SILAC), soluble fraction
Method in brief: as §1

P17066 = biological target: T12, P17066 (Homo sapiens, UniProt P17066)
T12 construct: Probe-modified proteins from the soluble fraction were conjugated to a desthiobiotin-azide tag; endogenous in cells; host or cells: DM93 (SILAC)
Method in brief: as §1

P53992 = biological target: T13, P53992 (Homo sapiens, UniProt P53992)
T13 construct: endogenous in cells; host or cells: DM93 cells (SILAC)
Method in brief: as §1

P30533 = biological target: T14, P30533 (Homo sapiens, UniProt P30533)
T14 construct: endogenous in cells; host or cells: DM93 (SILAC)
Method in brief: as §1

P78537 = biological target: T15, P78537 (Homo sapiens, UniProt P78537)
T15 construct: performing SuTEx compound screening directly in cells; endogenous in cells; host or cells: DM93 cells (SILAC)
Method in brief: as §1

Q9Y2H2 = biological target: T16, Q9Y2H2 (Homo sapiens, UniProt Q9Y2H2)
T16 construct: endogenous in cells; host or cells: DM93 cells (SILAC)
Method in brief: as §1

Q13428 = biological target: T17, Q13428 (Homo sapiens, UniProt Q13428)
T17 construct: performing SuTEx compound screening directly in cells; endogenous in cells; host or cells: DM93 cells (SILAC), soluble fraction
Method in brief: as §1

Q9H3P2 = biological target: T18, Q9H3P2 (Homo sapiens, UniProt Q9H3P2)
T18 construct: endogenous in cells; host or cells: DM93 cells (SILAC), treated live; soluble proteome analysed
Method in brief: as §1

T10 sequence (Q9BWD1 whole entry): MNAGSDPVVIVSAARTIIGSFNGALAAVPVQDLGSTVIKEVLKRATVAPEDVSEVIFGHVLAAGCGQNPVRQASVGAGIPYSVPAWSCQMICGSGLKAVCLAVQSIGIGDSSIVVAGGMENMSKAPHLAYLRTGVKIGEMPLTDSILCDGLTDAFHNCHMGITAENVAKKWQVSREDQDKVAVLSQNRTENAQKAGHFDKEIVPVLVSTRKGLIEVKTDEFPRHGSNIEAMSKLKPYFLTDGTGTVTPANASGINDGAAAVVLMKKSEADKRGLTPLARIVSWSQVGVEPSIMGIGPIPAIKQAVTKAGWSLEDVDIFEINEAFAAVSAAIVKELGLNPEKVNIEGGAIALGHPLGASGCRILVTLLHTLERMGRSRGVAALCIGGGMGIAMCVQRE
T6 sequence (P61326 whole entry): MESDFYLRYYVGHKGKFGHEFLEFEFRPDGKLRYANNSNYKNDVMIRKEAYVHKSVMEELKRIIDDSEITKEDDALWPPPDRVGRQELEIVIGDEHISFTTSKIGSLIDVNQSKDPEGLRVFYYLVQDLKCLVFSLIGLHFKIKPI
T11 sequence (Q13033 whole entry): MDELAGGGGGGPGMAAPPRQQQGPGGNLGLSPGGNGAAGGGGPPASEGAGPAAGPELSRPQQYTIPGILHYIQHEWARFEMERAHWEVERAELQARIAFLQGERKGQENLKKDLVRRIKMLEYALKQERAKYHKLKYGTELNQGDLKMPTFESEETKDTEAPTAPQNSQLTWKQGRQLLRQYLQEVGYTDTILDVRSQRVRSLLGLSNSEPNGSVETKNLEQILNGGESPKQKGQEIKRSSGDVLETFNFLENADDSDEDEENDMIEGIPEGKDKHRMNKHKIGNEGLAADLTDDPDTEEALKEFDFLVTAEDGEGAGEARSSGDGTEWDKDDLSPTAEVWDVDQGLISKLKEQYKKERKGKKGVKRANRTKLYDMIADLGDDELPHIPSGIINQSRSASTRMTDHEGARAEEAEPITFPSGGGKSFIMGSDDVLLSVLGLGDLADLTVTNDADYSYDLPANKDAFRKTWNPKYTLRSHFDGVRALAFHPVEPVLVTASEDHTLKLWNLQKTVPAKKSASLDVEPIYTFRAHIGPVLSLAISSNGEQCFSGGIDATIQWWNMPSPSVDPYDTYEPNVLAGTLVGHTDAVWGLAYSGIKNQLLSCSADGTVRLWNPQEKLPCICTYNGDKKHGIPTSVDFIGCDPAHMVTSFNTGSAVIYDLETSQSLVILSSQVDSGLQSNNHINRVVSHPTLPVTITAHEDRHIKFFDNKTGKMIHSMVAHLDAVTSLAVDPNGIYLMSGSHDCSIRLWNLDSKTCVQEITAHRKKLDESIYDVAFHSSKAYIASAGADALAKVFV
T16 sequence (Q9Y2H2 whole entry): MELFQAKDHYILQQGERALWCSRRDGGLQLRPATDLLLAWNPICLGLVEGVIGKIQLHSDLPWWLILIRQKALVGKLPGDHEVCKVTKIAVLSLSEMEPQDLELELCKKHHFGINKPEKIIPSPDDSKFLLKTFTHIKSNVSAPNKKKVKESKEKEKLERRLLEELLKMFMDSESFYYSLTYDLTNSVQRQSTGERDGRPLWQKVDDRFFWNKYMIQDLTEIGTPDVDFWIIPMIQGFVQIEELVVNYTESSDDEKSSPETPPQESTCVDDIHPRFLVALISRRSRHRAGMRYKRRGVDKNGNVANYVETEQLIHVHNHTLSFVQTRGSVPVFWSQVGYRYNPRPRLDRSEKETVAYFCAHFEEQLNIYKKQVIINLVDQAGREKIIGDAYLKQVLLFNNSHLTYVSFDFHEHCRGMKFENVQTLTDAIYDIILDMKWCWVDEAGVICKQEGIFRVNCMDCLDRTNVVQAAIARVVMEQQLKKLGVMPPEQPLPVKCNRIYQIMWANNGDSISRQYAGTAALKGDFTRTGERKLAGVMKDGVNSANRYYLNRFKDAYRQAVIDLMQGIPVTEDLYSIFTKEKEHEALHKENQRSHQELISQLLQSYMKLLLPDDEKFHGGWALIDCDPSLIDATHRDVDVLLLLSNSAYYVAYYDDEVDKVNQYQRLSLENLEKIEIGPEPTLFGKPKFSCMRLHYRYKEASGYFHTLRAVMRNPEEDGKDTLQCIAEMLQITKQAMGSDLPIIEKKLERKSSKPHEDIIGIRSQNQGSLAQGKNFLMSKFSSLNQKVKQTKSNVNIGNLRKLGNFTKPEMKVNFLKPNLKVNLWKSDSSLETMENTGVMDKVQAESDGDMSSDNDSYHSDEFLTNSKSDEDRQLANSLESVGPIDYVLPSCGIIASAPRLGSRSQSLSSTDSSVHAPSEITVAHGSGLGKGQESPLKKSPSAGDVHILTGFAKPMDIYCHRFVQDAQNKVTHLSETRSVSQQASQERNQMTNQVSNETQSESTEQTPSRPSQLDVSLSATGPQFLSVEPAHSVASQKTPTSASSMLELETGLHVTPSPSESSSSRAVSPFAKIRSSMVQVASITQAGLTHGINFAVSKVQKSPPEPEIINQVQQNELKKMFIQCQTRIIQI
T9 sequence (P23588 whole entry): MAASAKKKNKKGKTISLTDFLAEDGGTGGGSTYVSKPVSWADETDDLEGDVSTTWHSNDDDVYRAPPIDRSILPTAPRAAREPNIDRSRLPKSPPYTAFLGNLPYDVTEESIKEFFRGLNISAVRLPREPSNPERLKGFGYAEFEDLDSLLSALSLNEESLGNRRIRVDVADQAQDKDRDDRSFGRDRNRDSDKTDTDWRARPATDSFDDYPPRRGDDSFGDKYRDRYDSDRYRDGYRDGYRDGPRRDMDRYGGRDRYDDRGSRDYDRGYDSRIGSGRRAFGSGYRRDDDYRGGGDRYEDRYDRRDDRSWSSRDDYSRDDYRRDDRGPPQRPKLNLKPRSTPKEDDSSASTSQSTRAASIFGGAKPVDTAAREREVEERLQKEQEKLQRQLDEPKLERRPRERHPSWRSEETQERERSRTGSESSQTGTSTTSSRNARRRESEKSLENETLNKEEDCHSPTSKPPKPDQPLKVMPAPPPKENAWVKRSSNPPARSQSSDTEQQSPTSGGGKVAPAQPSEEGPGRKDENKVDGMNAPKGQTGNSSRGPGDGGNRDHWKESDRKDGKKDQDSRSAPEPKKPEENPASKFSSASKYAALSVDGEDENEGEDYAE
T14 sequence (P30533 35-357): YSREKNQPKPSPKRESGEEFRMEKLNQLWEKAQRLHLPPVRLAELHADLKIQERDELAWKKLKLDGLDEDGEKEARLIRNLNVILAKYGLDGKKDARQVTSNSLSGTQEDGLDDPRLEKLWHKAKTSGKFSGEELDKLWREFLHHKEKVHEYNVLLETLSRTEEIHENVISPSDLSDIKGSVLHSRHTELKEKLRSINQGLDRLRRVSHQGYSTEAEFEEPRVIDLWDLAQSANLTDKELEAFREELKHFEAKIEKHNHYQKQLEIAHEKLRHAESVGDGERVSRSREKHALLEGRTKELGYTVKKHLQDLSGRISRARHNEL
T8 sequence (Q9Y2S7 52-368): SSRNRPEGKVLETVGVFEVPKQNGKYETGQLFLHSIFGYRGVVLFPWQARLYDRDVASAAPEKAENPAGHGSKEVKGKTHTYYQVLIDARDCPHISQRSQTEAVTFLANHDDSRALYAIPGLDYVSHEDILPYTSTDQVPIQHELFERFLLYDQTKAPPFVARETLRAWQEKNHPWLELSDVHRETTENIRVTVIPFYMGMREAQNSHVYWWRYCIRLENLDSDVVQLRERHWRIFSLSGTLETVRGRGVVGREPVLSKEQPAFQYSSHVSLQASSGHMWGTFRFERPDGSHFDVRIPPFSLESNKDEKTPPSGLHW
T7 sequence (Q15020 whole entry): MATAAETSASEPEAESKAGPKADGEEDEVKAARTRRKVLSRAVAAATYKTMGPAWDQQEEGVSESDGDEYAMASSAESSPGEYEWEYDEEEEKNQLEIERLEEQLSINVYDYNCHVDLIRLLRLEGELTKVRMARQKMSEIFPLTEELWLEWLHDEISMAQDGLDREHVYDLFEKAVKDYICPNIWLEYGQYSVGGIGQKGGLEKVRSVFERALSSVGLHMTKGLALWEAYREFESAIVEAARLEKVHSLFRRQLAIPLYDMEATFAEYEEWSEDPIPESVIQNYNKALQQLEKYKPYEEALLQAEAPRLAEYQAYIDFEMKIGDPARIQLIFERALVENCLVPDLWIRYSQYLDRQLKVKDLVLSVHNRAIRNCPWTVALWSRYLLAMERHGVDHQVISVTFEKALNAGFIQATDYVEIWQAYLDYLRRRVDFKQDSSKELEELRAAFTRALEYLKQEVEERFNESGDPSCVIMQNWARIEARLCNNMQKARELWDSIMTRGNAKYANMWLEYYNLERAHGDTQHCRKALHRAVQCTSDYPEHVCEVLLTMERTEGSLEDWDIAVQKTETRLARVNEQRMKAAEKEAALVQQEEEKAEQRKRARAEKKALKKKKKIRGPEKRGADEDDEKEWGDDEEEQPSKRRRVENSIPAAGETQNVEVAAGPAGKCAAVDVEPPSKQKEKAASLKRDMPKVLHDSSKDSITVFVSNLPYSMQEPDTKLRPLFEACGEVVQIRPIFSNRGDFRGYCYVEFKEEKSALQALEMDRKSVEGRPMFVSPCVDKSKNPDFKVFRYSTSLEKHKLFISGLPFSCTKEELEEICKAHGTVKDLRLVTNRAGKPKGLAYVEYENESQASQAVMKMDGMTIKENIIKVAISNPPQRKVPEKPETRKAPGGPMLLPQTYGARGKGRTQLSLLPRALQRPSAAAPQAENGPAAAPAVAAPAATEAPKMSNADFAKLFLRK
T4 sequence (Q04323 whole entry): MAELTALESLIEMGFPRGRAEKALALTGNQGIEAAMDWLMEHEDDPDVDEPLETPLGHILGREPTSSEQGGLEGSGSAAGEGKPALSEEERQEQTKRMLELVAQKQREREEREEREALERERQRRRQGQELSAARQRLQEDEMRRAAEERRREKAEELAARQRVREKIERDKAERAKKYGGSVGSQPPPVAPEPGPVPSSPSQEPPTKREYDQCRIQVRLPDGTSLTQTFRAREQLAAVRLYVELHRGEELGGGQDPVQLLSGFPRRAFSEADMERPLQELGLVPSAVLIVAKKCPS

O=C(c1ccc(S(=O)(=O)n2cncn2)cc1)N1CCC(c2ccccc2)CC1 [HHS-0701, (4-((1H-1,2,4-triazol-1-yl)sulfonyl)phenyl)(4-phenylpiperidin-1-yl)methanone]
liganded tyrosine site 83 (Q9BPW8): HHS0701.Y (tyrosine sites that showed >80% reductions (SR >5) in probe labeling in cells treated with compounds (liganded sites)) | liganded tyrosine site 138 (P61978): HHS0701.Y (tyrosine sites that showed >80% reductions (SR >5) in probe labeling in cells treated with compounds (liganded sites)) | liganded tyrosine site 74 (P51665): HHS0701.Y (tyrosine sites that showed >80% reductions (SR >5) in probe labeling in cells treated with compounds (liganded sites)) | liganded tyrosine site 179 (Q04323): HHS0701.Y (tyrosine sites that showed >80% reductions (SR >5) in probe labeling in cells treated with compounds (liganded sites))

O=C(NCC1CC1)c1ccc(S(=O)(=O)n2cncn2)cc1 [HHS-0201, 4-((1H-1,2,4-triazol-1-yl)sulfonyl)-N-(cyclopropylmethyl)benzamide]
liganded tyrosine site 82 (O43660): HHS0201.Y (tyrosine sites that showed >80% reductions (SR >5) in probe labeling in cells treated with compounds (liganded sites)) | liganded tyrosine site 34 (P61326): HHS0201.Y (tyrosine sites that showed >80% reductions (SR >5) in probe labeling in cells treated with compounds (liganded sites))

O=C(NC1CC1)c1ccc(S(=O)(=O)n2cncn2)cc1 [HHS-0101, 4-((1H-1,2,4-triazol-1-yl)sulfonyl)-N-cyclopropylbenzamide]
liganded tyrosine site 541 (Q15020): HHS0101.Y|HHS0201.Y|HHS0301.Y|HHS0401.Y|HHS0701.Y (tyrosine sites that showed >80% reductions (SR >5) in probe labeling in cells treated with compounds (liganded sites)) | liganded tyrosine site 168 (Q9Y2S7): HHS0101.Y (tyrosine sites that showed >80% reductions (SR >5) in probe labeling in cells treated with compounds (liganded sites)) | liganded tyrosine site 258 (P23588): HHS0101.Y (tyrosine sites that showed >80% reductions (SR >5) in probe labeling in cells treated with compounds (liganded sites)) | liganded tyrosine site 237 (Q9BWD1): HHS0101.Y|HHS0201.Y|HHS0301.Y|HHS0401.Y (tyrosine sites that showed >80% reductions (SR >5) in probe labeling in cells treated with compounds (liganded sites)) | liganded tyrosine site 137 (Q13033): HHS0101.Y|HHS0401.Y (tyrosine sites that showed >80% reductions (SR >5) in probe labeling in cells treated with compounds (liganded sites))

O=C(NC1CCCCC1)c1ccc(S(=O)(=O)n2cncn2)cc1 [HHS-0301, 4-((1H-1,2,4-triazol-1-yl)sulfonyl)-N-cyclohexylbenzamide]
liganded tyrosine site 373 (P17066): HHS0301.Y (tyrosine sites that showed >80% reductions (SR >5) in probe labeling in cells treated with compounds (liganded sites)) | liganded tyrosine site 300 (P53992): HHS0301.Y (tyrosine sites that showed >80% reductions (SR >5) in probe labeling in cells treated with compounds (liganded sites)) | liganded tyrosine site 336 (P30533): HHS0301.Y|HHS0701.Y (tyrosine sites that showed >80% reductions (SR >5) in probe labeling in cells treated with compounds (liganded sites)) | liganded tyrosine site 78 (P78537): HHS0301.Y|HHS0401.Y|HHS0701.Y (tyrosine sites that showed >80% reductions (SR >5) in probe labeling in cells treated with compounds (liganded sites))

O=C(NCc1ccccc1)c1ccc(S(=O)(=O)n2cncn2)cc1 [HHS-0401, 4-((1H-1,2,4-triazol-1-yl)sulfonyl)-N-benzylbenzamide]
liganded tyrosine site 887 (Q9Y2H2): HHS0401.Y|HHS0701.Y (tyrosine sites that showed >80% reductions (SR >5) in probe labeling in cells treated with compounds (liganded sites)) | liganded tyrosine site 15 (Q13428): HHS0401.Y (tyrosine sites that showed >80% reductions (SR >5) in probe labeling in cells treated with compounds (liganded sites)) | liganded tyrosine site 324 (Q9H3P2): HHS0401.Y|HHS0701.Y (tyrosine sites that showed >80% reductions (SR >5) in probe labeling in cells treated with compounds (liganded sites))
